This is an account of results in US20200010482A1, “INHIBITORS OF BETA SECRETASE” (Janssen Pharmaceutica NV, priority 2017, published 2020).

In assay [1] the test system is Abeta total produced and secreted by SKNBE2 cells expressing hAPP695. As to the kind of experiment: Cellular αLisa assay in SKNBE2 cells, Abeta total. In kind it is cell-based, human. The conditions noted are these: SKNBE2 cells expressing hAPP695, 18 hours incubation. Here is the method: In two αLisa assays the levels of Abeta total and Abeta 1-42 produced and secreted into the medium of human neuroblastoma SKNBE2 cells are quantified. The assay is based on the human neuroblastoma SKNBE2 expressing the wild type Amyloid Precursor Protein (hAPP695). The compounds are diluted and added to these cells, incubated for 18 hours and then measurements of Abeta 1-42 and Abeta total are taken. Abeta total and Abeta 1-42 are measured by sandwich αLisa. αLisa is a sandwich assay using biotinylated antibody AbN/25 attached to streptavidin coated beads and antibody Ab4G8 or cAb42/26 conjugated acceptor beads for the detection of Abeta total and Abeta 1-42 respectively. In the presence of Abeta total or Abeta 1-42, the beads come into close proximity. The excitation of the donor beads provokes the release of singlet oxygen molecules that trigger a cascade of energy transfer in the acceptor beads, resulting in light emission. Light emission is measured after 1 hour incubation (excitation at […] and emission at 615 nm).
A best-fit curve is fitted by a minimum sum of squares method to the plot of % Controlmin versus compound concentration. From this an IC50 value (inhibitory concentration causing 50% inhibition of activity) can be obtained. • LC=Median of the low control values=Low control: cells preincubated without compound, without biotinylated Ab in the αLisa • HC=Median of the High control values=High Control: cells preincubated without compound
% Effect=100−[(sample−LC)/(HC−LC)*100]
% Control=(sample/HC)*100
% Controlmin=(sample−LC)/(HC−LC)*100

Assay [2] deals with β-secretase I (BACE1) (Homo sapiens, UniProt P56817). Kind of assay: Biochemical assay, automated (CyclOps), BACE1. The conditions noted are these: automated CyclOps bioassay; for IC50: read-out: AUTOMATED ASSAY BACE1 pIC50 (converted). Here is the method: (§1) Unless otherwise indicated all biochemicals were purchased from Sigma-Aldrich Chemical Company, Poole, Dorset, U.K. and non-aqueous solvents, of analytical or higher grade, were purchased from ThermoFisher Scientific, Loughborough, U.K. MilliQ water (Elix 5 & MilliQ Gradient; Merck Millipore) was used as the base aqueous solvent to make up the biological buffers. Base assay buffer was prepared by adding a 50 mM solution of citric acid (1.00244; Merck Biosciences) to stirring solution of 50 mM trisodium citrate (1.06448; Merck Biosciences) until a final pH of 5.0 was achieved. […] All assays were routinely carried out in 384-well assay plates (Costar 4514; Corning Life Sciences) and incubated at 37±1° C. for 60 min. prior to reading the endpoint fluorescence intensity. The (7-methoxyl coumarin-4-yl)acetic acid based substrate β-secretase substrate VI (M2465; Bachem) was prepared as a 1 mM stock in 100% DMSO (D/4121/PB08; ThermoFisher). Assay buffer was prepared by adding DMSO to base buffer to a final concentration of 1% (vol./vol.). β-secretase I (18.64 μM; “BACE1”) and β-secretase II (4.65 μM; “BACE2”) were obtained from Janssen Pharmaceutica, Beerse, Belgium and were stored as frozen aliquots (˜20 μl) and thawed as required.
(§2) Typically 12.5 μl of assay buffer was dispensed to rows B to P of the assay plate. To row A was added 18.75 μl of test compound diluted appropriately in assay buffer. A 6.25 μl aliquot of sample was transferred from row A to row B and the sample mixed three times by pipette. The process was repeated down the plate and 6.25 μl of solution discarded at row N post-mix. Rows O and P were designated as the positive and negative controls. To row P was added 6.25 μl base buffer. To rows A to O was added 6.25 μl enzyme (freshly prepared 40 nM BACE1 or 40 nM BACE2) diluted in base buffer. To initiate the assay 6.25 μl of freshly prepared 80 μM substrate, made up by diluting the 1 mM in 100% DMSO solution into HPLC grade water (Optima W6-212; ThermoFisher), was added to all the wells. The assay plate was covered and incubated at 37±1° C. for 60 min. The fluorescence intensity of the wells was read at 360/405 nm (excitation/emission) utilising a nine reads per well protocol (50 ms integration; density of 3, 0.25 mm spacing; SpectraMAX Paradigm plate reader; TUNE cartridge; SoftMax Pro v 6.3 software; Molecular Devices UK Ltd., Wokingham, Berkshire, UK) and outputting the median value of the nine reads as a text file. Data analysis was carried out using Prism software v 6.3 (GraphPad Inc., San Diego, Calif., USA) using the non-linear regression analysis models supplied by the vendor. For IC50 determinations the four parameter logistic variable slope model was used to fit the raw fluorescence intensity data with the ‘bottom’ fixed to the negative control.
(§3) The CyclOps bioassay module consisted of a fraction collection station, a reagent station, liquid handling robotics, plate store and an integrated plate reader (SpectraMAX Paradigm, TUNE cartridge, SoftMax Pro v 6.3; Molecular Devices). The fraction collection station composed of a 384 well collection plate (P-384-240SQ-C; Axygen, Union City, Calif., USA) mounted on a H-portal carriage (Festo AG & Co. KG, Esslingen, Germany), a syringe drive and a two-way six port injection valve fitted with a 200 μl loop (VICI AG International, Schenkon Switzerland). The output of the injection valve was addressable to all the positions of a 384 well collection plate. The reagent station consisted of hydraulically cooled (10-12° C.) aluminium segments; each manufactured to house a SBS microtiter plate footprint. Independent addressable reagent stations were housed within these sections. Where required, custom aluminium housings were used to accommodate standard laboratory plastic ware (e.g. Eppendorf tubes, Falcon tubes, etc.). As and when required the reagent reservoirs were covered and the lids contained holes through which the Teflon-coated probe could access solutions. […]

In assay [3] the target is T1, β-secretase II (BACE2) (Homo sapiens, UniProt Q9Y5Z0).
T1 sequence (Q9Y5Z0 63-518): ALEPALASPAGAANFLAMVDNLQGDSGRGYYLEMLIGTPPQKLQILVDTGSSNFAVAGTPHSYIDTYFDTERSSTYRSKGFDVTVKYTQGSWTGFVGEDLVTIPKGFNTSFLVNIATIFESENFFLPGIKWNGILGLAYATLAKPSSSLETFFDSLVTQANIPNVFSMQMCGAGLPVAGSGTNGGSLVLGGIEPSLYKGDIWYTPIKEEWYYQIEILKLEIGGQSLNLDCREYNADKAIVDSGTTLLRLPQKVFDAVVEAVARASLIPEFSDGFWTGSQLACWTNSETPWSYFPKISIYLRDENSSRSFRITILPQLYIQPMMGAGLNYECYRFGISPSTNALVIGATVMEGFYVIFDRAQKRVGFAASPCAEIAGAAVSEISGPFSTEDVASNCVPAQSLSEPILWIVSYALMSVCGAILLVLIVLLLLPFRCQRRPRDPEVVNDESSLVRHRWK
As to the kind of experiment: Biochemical assay, automated (CyclOps), BACE2. The conditions noted are these: automated CyclOps bioassay; for IC50: read-out: AUTOMATED ASSAY BACE2 pIC50 (converted). Here is the method: as §1, §2, §3

Sequence of β-secretase I (BACE1) (P56817 46-501): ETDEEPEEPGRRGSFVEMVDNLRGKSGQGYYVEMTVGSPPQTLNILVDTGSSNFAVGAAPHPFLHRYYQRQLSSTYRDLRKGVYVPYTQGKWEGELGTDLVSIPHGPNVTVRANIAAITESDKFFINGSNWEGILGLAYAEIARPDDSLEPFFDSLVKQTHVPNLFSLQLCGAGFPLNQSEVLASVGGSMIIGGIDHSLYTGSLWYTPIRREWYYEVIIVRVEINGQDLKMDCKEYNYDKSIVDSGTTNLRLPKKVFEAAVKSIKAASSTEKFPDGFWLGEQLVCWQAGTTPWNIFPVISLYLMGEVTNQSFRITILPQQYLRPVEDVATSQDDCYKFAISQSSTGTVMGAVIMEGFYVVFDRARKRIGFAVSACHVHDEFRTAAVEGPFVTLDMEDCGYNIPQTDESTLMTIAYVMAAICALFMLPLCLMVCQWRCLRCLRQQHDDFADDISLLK

Take `COc1ncc(C#N)c2c1C[C@]1(c3ccccc3F)N=C(N)SC[C@@H]1C2` (racemic) [Compound 22]: in assay [1] (Homo sapiens, SKNBE2, 18 h, read-out: CELLULAR αLISA ASSAY IN SKNBE2 CELLS ABETA TOTAL pIC50 (converted)), the IC50 was 49 nM.
Regarding `COc1ncc(-c2cc(Cl)ccc2C)c2c1C[C@]1(c3ccc(F)cc3F)N=C(N)SC[C@@H]1C2` [Compound 60], in assay [2], the “AUTOMATED ASSAY BACE1 pIC50” value worked out at 7.65. For the same molecule, the “AUTOMATED ASSAY BACE2 pIC50” value in assay [3] was found to be 6.73.
Consider `COC/C=C/c1cnc(OC)c2c1C[C@H]1CSC(N)=N[C@@]1(c1ccc(F)cc1F)C2` [Compound 47], for which the IC50 in assay [2] is 9.77 nM; in assay [3], 5.89 nM.
With `COc1ncc(-c2ccccc2C)c2c1C[C@]1(c3ccc(F)cc3F)N=C(N)SC[C@@H]1C2` [Compound 55], in assay [2], the “AUTOMATED ASSAY BACE1 pIC50” value stood at 7.77. The “AUTOMATED ASSAY BACE2 pIC50” value in assay [3] was 7.3.
In the case of `COc1ncc(-c2ccccc2)c2c1C[C@]1(c3ccc(F)cc3F)N=C(N)SC[C@@H]1C2` [Compound 49], the “CELLULAR αLISA ASSAY IN SKNBE2 CELLS ABETA TOTAL pIC50” value in assay [1] turned out to be 8.75. Besides, the “AUTOMATED ASSAY BACE1 pIC50” value in assay [2] is 8.6. Moreover, in assay [3], the “AUTOMATED ASSAY BACE2 pIC50” value came out at 9.02.
In the case of `COc1cc(C)c(-c2cnc(OC)c3c2C[C@H]2CSC(N)=N[C@@]2(c2ccc(F)cc2F)C3)cn1` [Compound 106], the values for the IC50 in assay [2] and in assay [3] were 4.68 nM and 75.9 nM, respectively.
